Publication PMC9525273 (Nature Communications, 2022)
Where “and” joins values, the source holds several entries; their conditions need not be identical. Equal values may be shown once. Read-outs that look alike come from different tables or passages of the source.

Tests used:
NF54^WT parasites = assay: microbe, parasite or virus in culture; format: cell-based, Plasmodium falciparum; details: for FC (IC50) / FC (IC90): reference line
Experimental: For the NF54-based lines and Dd2-B2-PfATP4^G358S and its parent, assays were initiated with cultures containing predominantly ring-stage parasites with a parasitaemia of 0.3% and a haematocrit of 1%. All assays using NF54 were performed in culture media containing 10% O + human serum. The duration of the assays was 72 h and the concentration of DMSO was <0.5% (v/v). Serial dilutions of the test compounds were performed using a Tecan D300e digital dispenser, with parasite cultures added manually. Parasite survival was assessed by flow cytometry on an Intellicyt iQue3 (Essen Bioscience), with 1× SYBR Green I (Invitrogen) and 200 nM MitoTracker Deep Red FM (Invitrogen) used to stain the nucleus and the mitochondria in live parasites, respectively. The gating strategy used to quantify parasite survival, performed using FlowJo version 10 (FlowJo LLC.), is illustrated in Supplementary Fig. 9. IC50 and IC90 values were calculated by linear interpolation of the dose-response data.

[1] = biological target: T1, PfATP4^G358S (membranes from Dd2-Polδ-PfATP4^G358S parasites) (Plasmodium falciparum, UniProt A0A143ZZK9, G358S); assay: Membrane ATPase assay, ATP4-associated (Na+-dependent) ATPase activity; format: biochemical; parameters: IC50 for inhibition of ATP4-associated ATPase activity, MEAN / IC50 for inhibition of ATP4-associated ATPase activity: unit: nM; details: for IC50 for ATP4-associated ATPase activity: membranes from Dd2-Polδ-PfATP4G358S, mean ± SEM; for PfATP4-associated ATPase activity (% of control): Dd2-Polδ-PfATP4G358S
T1 sequence (A0A143ZZK9 1-1264 G358S): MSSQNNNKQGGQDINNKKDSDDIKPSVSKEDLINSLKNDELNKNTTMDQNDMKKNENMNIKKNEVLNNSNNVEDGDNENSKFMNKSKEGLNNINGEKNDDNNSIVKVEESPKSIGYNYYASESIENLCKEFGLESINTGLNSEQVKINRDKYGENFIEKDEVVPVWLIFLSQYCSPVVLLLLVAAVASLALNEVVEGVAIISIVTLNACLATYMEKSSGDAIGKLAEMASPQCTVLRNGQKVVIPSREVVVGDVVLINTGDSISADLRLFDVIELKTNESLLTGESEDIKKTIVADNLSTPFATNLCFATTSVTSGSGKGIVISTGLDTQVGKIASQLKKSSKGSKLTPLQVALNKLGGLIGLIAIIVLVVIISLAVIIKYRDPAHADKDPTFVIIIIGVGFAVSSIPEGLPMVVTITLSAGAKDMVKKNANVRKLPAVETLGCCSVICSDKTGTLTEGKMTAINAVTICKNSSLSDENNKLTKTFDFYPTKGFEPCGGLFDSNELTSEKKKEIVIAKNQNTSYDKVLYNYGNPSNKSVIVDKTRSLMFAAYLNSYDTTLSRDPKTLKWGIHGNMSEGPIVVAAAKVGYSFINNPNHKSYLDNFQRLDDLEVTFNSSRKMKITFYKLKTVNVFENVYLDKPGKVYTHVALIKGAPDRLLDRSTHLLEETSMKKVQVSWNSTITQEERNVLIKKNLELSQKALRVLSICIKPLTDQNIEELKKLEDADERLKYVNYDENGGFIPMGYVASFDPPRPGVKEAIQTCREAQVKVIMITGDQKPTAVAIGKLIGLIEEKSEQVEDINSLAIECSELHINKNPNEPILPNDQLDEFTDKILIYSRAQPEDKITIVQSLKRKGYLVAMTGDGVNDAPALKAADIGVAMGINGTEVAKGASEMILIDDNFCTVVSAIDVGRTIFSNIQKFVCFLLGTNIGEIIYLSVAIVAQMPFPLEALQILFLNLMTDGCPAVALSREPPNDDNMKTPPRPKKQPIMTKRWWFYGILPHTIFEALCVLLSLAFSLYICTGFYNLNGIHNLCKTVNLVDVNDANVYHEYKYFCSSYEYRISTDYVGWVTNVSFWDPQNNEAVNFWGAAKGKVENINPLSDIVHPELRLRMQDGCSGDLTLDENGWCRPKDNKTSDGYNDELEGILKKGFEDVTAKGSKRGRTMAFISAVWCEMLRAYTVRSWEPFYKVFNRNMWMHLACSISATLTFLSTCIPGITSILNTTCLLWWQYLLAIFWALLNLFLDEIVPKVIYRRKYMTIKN
Experimental: Membranes from isolated P. falciparum or extracellular T. gondii parasites were prepared by lysing parasites in ice-cold deionized water containing a 1:500 dilution of Protease Inhibitor Cocktail Set III (Merck Millipore), then washing the membrane preparation three times in ice-cold deionized water (with protease inhibitors present for the first two washes)[15]. Protein concentrations in the membrane preparations were measured using a Bradford assay. The PiColorLock Gold Phosphate Detection System (Innova Biosciences) was used to measure the production of Pi from hydrolysis of ATP[15]. Membrane preparations were diluted in either a high Na^+ solution (yielding final conditions in the reactions of 150 mM NaCl, 20 mM KCl, 2 mM MgCl2, 50 mM Tris, pH 7.2) or a Na^+-free solution (yielding final conditions of 150 mM choline chloride, 20 mM KCl, 2 mM MgCl2, 50 mM Tris, pH 7.2) to achieve a total protein concentration of 50 μg/mL. […] The reactions were performed at 37 °C, and were initiated by the addition of 1 mM ATP (Na2ATP۰3H2O; MP Biomedicals) and terminated 10 min later by adding 100 μL of reaction mixture (in duplicate) to 25 μL “Gold mix” in a 96-well plate. […] Background values (averaged from wells containing all components, but to which ATP was not added until after the membrane was exposed to Gold mix) were subtracted from the data. For each treatment, the ATPase activity associated with the (Na^+-dependent) PfATP4 and TgATP4 proteins was calculated by subtracting data obtained in the low Na^+ condition (containing only the 2 mM Na^+ introduced on addition of 1 mM Na2ATP) from that obtained in the high Na^+ condition.

[2] = NF54WT parasites, individual experiments, read-out: IC90 values
[3] = NF54WT, single experiments, source data of Fig. 2 (nM in Supplementary Table 5), read-out: IC50 values
[4] = Plasmodium falciparum, NF54, NF54WT parasites, individual experiments, read-out: IC90 values
[5] = Plasmodium falciparum, NF54, NF54WT parasites, mean of the experiments, read-out: IC90 values, MEAN
[6] = Plasmodium falciparum, NF54, NF54WT, MEAN, source data of Fig. 2, read-out: IC50 values, MEAN
[7] = Plasmodium falciparum, NF54, NF54WT, single experiments, source data of Fig. 2 (nM in Supplementary Table 5), read-out: IC50 values

Structure (SMILES): C[C@H]1Cc2c([nH]c3cc(Cl)c(F)cc23)[C@@]2(N1)C(=O)Nc1ccc(Cl)cc12 [Cipargamin]
- IC90 (NF54^WT parasites; [2]): 4.6 nM and 3.5 nM
- FC (IC50) (NF54^WT parasites; NF54WT): 1.0 fold
- FC (IC90) (NF54^WT parasites; NF54WT): 1.0 fold
- IC50 (NF54^WT parasites; [3]): 2.8 nM and 2.5 nM and 2.6 nM
- IC90 (NF54^WT parasites; [4]): 3.6 nM
- IC90 (NF54^WT parasites; [5]): 3.8 nM
- IC50 (NF54^WT parasites; [6]): 2.64 nM
- IC50 (NF54^WT parasites; [7]): 2.7 nM
- IC50 for inhibition of ATP4-associated ATPase activity, MEAN ([1]; Dd2-Polδ-PfATP4G358S membranes, MEAN, source data of Table 1 (nM there)): 99.4
- IC50 for ATP4-associated ATPase activity [1]: 99 ± 21 (4) (P = 0.004) nM

Structure (SMILES): N#Cc1cc(NC(=O)[C@H]2c3ccccc3C(=O)N(CC(F)(F)F)[C@@H]2c2cccnc2)ccc1F [(+)-SJ733]
- IC90 (NF54^WT parasites; [2]): 171 nM and 165 nM and 176 nM
- FC (IC50) (NF54^WT parasites; NF54WT): 1.0 fold
- FC (IC90) (NF54^WT parasites; NF54WT): 1.0 fold
- IC50 (NF54^WT parasites; [3]): 89.8 nM and 87.1 nM and 107 nM
- IC90 (NF54^WT parasites; [4]): 141 nM
- IC90 (NF54^WT parasites; [5]): 164 nM
- IC50 (NF54^WT parasites; [6]): 93.8 nM
- IC50 (NF54^WT parasites; [7]): 91.6 nM
- IC50 for inhibition of ATP4-associated ATPase activity ([1]; Dd2-Polδ-PfATP4G358S membranes, single experiments, source data of Table 1 (nM there)): 816 and 877 and 793
- IC50 for ATP4-associated ATPase activity [1]: 829 ± 25 (3) (P = 5 × 10^−6) nM

Structure (SMILES): N#Cc1cc(NC(=O)[C@H]2c3ccccc3C(=O)N(CC(F)(F)F)[C@@H]2c2cccnc2)ccc1F [(+)SJ733]
- PfATP4-associated ATPase activity (% of control) ([1]; [(+)SJ733] 0.122 nM, MEAN): 85.0 % of control
- PfATP4-associated ATPase activity (% of control) ([1]; [(+)SJ733] 0.122 nM, single experiments, 0.000122 µM): 115.8 % of control and 74.1 % of control and 65.2 % of control
- PfATP4-associated ATPase activity (% of control) ([1]; [(+)SJ733] 0.244 nM, MEAN): 125.3 % of control
- PfATP4-associated ATPase activity (% of control) ([1]; [(+)SJ733] 0.244 nM, single experiments, 0.000244 µM): 139.0 % of control and 119.0 % of control and 117.8 % of control
- PfATP4-associated ATPase activity (% of control) ([1]; [(+)SJ733] 0.5 nM, MEAN): 90.2 % of control
- PfATP4-associated ATPase activity (% of control) ([1]; [(+)SJ733] 0.5 nM, single experiments, 0.0005 µM): 95.6 % of control and 76.4 % of control and 98.6 % of control
- PfATP4-associated ATPase activity (% of control) ([1]; [(+)SJ733] 1.0 nM, MEAN): 98.3 % of control
- PfATP4-associated ATPase activity (% of control) ([1]; [(+)SJ733] 2.0 nM, MEAN): 109.4 % of control
- PfATP4-associated ATPase activity (% of control) ([1]; [(+)SJ733] 2.0 nM, single experiments, 0.002 µM): 114.6 % of control and 135.7 % of control and 77.8 % of control
- PfATP4-associated ATPase activity (% of control) ([1]; [(+)SJ733] 3.9 nM, MEAN): 81.9 % of control
- PfATP4-associated ATPase activity (% of control) ([1]; [(+)SJ733] 3.9 nM, single experiments, 0.0039 µM): 93.0 % of control and 73.2 % of control and 79.5 % of control
- PfATP4-associated ATPase activity (% of control) ([1]; [(+)SJ733] 7.8 nM, MEAN): 84.3 % of control
- PfATP4-associated ATPase activity (% of control) ([1]; [(+)SJ733] 7.8 nM, single experiments, 0.0078 µM): 82.0 % of control and 99.5 % of control and 71.2 % of control
- PfATP4-associated ATPase activity (% of control) ([1]; [(+)SJ733] 15.6 nM, MEAN): 119.8 % of control
- PfATP4-associated ATPase activity (% of control) ([1]; [(+)SJ733] 15.6 nM, single experiments, 0.0156 µM): 88.8 % of control and 152.3 % of control and 118.3 % of control
- PfATP4-associated ATPase activity (% of control) ([1]; [(+)SJ733] 31.3 nM, MEAN): 94.2 % of control
- PfATP4-associated ATPase activity (% of control) ([1]; [(+)SJ733] 31.3 nM, single experiments, 0.0313 µM): 92.0 % of control and 104.2 % of control and 86.4 % of control
- PfATP4-associated ATPase activity (% of control) ([1]; [(+)SJ733] 62.5 nM, MEAN): 103.2 % of control
- PfATP4-associated ATPase activity (% of control) ([1]; [(+)SJ733] 62.5 nM, single experiments, 0.0625 µM): 102.4 % of control and 79.6 % of control and 127.6 % of control
- PfATP4-associated ATPase activity (% of control) ([1]; [(+)SJ733] 250 nM, MEAN): 82.2 % of control
- PfATP4-associated ATPase activity (% of control) ([1]; [(+)SJ733] 250 nM, single experiments, 0.25 µM): 91.0 % of control and 86.1 % of control and 69.4 % of control
- PfATP4-associated ATPase activity (% of control) ([1]; [(+)SJ733] 500 nM, MEAN): 53.9 % of control
- PfATP4-associated ATPase activity (% of control) ([1]; [(+)SJ733] 1000 nM, MEAN): 56.2 % of control
- PfATP4-associated ATPase activity (% of control) ([1]; [(+)SJ733] 2000 nM, MEAN): 20.4 % of control
- PfATP4-associated ATPase activity (% of control) ([1]; [(+)SJ733] 4000 nM, MEAN): -1.2 % of control
- PfATP4-associated ATPase activity (% of control) ([1]; [(+)SJ733] 8000 nM, MEAN): -15.8 % of control

Structure (SMILES): C[C@H]1[C@@H](O)O[C@@H]2O[C@@]3(C)CC[C@H]4[C@H](C)CC[C@@H]1[C@@]24OO3 [Dihydroartemisinin]
- IC90 (NF54^WT parasites; [2]): 1.85 nM and 1.87 nM and 2.79 nM
- FC (IC50) (NF54^WT parasites; NF54WT): 1.0 fold
- FC (IC90) (NF54^WT parasites; NF54WT): 1.0 fold
- IC90 (NF54^WT parasites; [4]): 2.83 nM
- IC90 (NF54^WT parasites; [5]): 2.3 nM
- IC50 (NF54^WT parasites; Plasmodium falciparum, NF54, NF54WT, 10% human serum, read-out: IC50 ± SEM): 0.8 ± 0.1 nM
- IC50 (NF54^WT parasites; Plasmodium falciparum, NF54, read-out: Dihydroartemisinin IC50 values, NF54WT, MEAN): 0.84 nM
- IC50 (NF54^WT parasites; read-out: Dihydroartemisinin IC50 values, NF54WT, single experiments): 0.78 nM and 0.71 nM and 0.86 nM
